Consider eleven compounds from BindingDB's records for doi:10.1016/j.bmc.2006.10.028 (Kirin Brewery, 2006).

What is called IC50 is the concentration at which inhibition is half-maximal. Lower therefore signals greater potency.

This assay can be described thus: Inhibition of MCP1-induced chemotaxis in U937 cells overexpressing CCR2.
Regarding `Nc1cccc(CN2CC[C@@H](Nc3cccc4cnccc34)C2)c1` [(3R)-N-[1-(3-aminobenzyl)-3-pyrrolidyl]-N-(5-isoquinolyl)amine], half-maximal inhibition (IC50) was put at 1 µM.

On to `Nc1cccc(CN2CC[C@H](Nc3cccc4cnccc34)C2)c1` [(3S)-N-[1-(3-aminobenzyl)-3-pyrrolidyl]-N-(5-isoquinolyl)amine], for which the half-maximal inhibitory concentration (IC50) came to 30 µM.

In turn, `Fc1cccc(F)c1CN1CCC(Nc2cccc3cnccc23)C1` (stereo unspecified) [N-(1-(2,6-difluorobenzyl)pyrrolidin-3-yl)isoquinolin-5-amine] had an IC50 of 10 µM.

In turn, `Nc1cccc(CN2CCC(Nc3cccc4cnccc34)C2)c1` (stereo unspecified) [N-(1-(3-aminobenzyl)pyrrolidin-3-yl)isoquinolin-5-amine] yielded an IC50 of 20 µM.

For `Clc1cccc(CN2CCC(Nc3cccc4cnccc34)C2)c1` (stereo unspecified) [N-(1-(3-chlorobenzyl)pyrrolidin-3-yl)isoquinolin-5-amine], the midpoint of inhibition, the IC50, lay at 14 µM.

In turn, `Nc1ccc(CN2CCC(Nc3cccc4cnccc34)C2)cc1` (stereo unspecified) [N-(1-(4-aminobenzyl)pyrrolidin-3-yl)isoquinolin-5-amine] gave an IC50 of 15 µM.

For the compound `Clc1ccc(CN2CCCC(Nc3cccc4cnccc34)C2)cc1` (stereo unspecified) [N-(1-(4-chlorobenzyl)piperidin-3-yl)isoquinolin-5-amine], 23 µM corresponded to half-maximal inhibition (IC50).

For the compound `Clc1ccc(CN2CCC(Nc3cccc4cnccc34)C2)cc1` (stereo unspecified) [N-(1-(4-chlorobenzyl)pyrrolidin-3-yl)isoquinolin-5-amine], 11 µM corresponded to half-maximal inhibition (IC50).

Consider `Nc1ccccc1CN1CCC(Nc2cccc3cnccc23)C1` (stereo unspecified) [N-[1-(2-aminobenzyl)-3-pyrrolidyl]-N-(5-isoquinolyl)amine], for which the concentration for half-maximal inhibition (IC50) was 14 µM.

For `Clc1ccccc1CN1CCC(Nc2cccc3cnccc23)C1` (stereo unspecified) [N-[1-(2-chlorobenzyl)-3-pyrrolidyl]-N-(5-isoquinolyl)amine], half-maximal inhibition (IC50) was put at 17 µM.

In turn, `Fc1ccc(CN2CCC(Nc3cccc4cnccc34)C2)cc1` (stereo unspecified) [N-[1-(4-fluorobenzyl)-3-pyrrolidyl]-N-(5-isoquinolyl)amine] gave an IC50 of 22 µM.
